Columns and labels:
J82 cells = assay: Plasma clotting assay with J82 bladder carcinoma cells; assay type: cell-based, human; details: p38 inhibitor 10 µM pre-culture 10 days; anti-TF antibody 30 minutes pre-binding; untreated cells 155.01
Method: (§1) In the previous example, cells were stimulated overnight to produce TF by LPS induction. Inhibition of this process was achieved by addition of p38 inhibitor compound 1, evaluated by plasma clotting assay. In this example, two types of cells were pre-cultured with the p38 inhibitors compound 1 and compound 2 for 10 days to evaluate the effect of p38 MAPK inhibitors on coagulation. Cells were separately treated using a final concentration of 10 µM of each p38 inhibitor. Parallel treatments of DMSO vehicle were included as a control. Media, containing the above compounds were replenished during culture at intervals of every 2 days.
(§2) Human mesenchymal stem cells (MSC) were isolated from whole bone marrow purchased from Cambrex BioScience Walkersville, Inc. Cells were obtained from 10-ml aspirates taken from the iliac crest of normal human donors (age about 20 years). Mononuclear cells were isolated by gradient centrifugation. […]
(§3) The plasma clotting assay was performed as described in Example 1. Cells were lightly trypsinized from culture on the day of assay, washed, counted, and viability was determined before adjusting to 10^6 cells/ml in HBSS. […] Coagulation was monitored at room temperature in a kinetic plate reader using 15 second interval readings at 405 nm over 60 to 120 minutes. A final reading of T1/2 maximal clotting time was obtained for each sample condition. […]

[1] = tested on: Human mesenchymal stem cells (MSC); assay: Plasma clotting assay with human mesenchymal stem cells; assay type: cell-based; details: p38 inhibitor 10 µM pre-culture 10 days; anti-TF antibody 30 minutes pre-binding; untreated cells 1042.0
Method: as §1, §2, §3

isolated mouse islets = assay: Plasma clotting assay with isolated mouse islets; assay type: cell-based, Balb/c mice; details: 10 µM p38 inhibitor, islets cultured 72 hours; 50 islets/well; vehicle control 388.6 (compound 2 experiment), 488.9 (second experiment)
Method: Pancreata were harvested from Balb/c mice via cannulation of the common bile duct and perfusion with a liberase solution (Roche). Pancreata were digested at 37°C for 15 minutes followed by discontinuous ficoll gradient centrifugation to remove acinar and ductal tissue.
Islets of similar size were collected and plated in 3 ml of islet growth medium in a 6-well culture dish (300 islets per well) with or without p38 MAPK inhibitors (10 µM compound 1 or compound 2). Vehicle control was an equivalent dilution of DMSO. Islets were cultured at 37°C in 5% CO2 for 72 hours. The three treatment conditions were: vehicle control, (+) p38 inhibitor compound 1, and (+)p38 inhibitor compound 2.
Plasma Clotting Assay. […] Clotting was monitored at 15 second intervals for 2 hours at room temperature in a Spectra MAX 190 (Molecular Devices, Sunnyvale, CA) at 405nm. Times to half maximum OD were calculated as 388.6 seconds for the vehicle control and 596.9 seconds for cells treated with p38 inhibitor compound 2. […] In a second experiment, the time to half maximum was calculated as 488.9 seconds for the vehicle control and 974.7 seconds for treated islets. […]

[2] = tested on: Peripheral blood mononuclear cells (PBMCs); assay: Plasma clotting assay with PBMCs; assay type: cell-based, human; details: p38 inhibitor 10 µM pre-incubated 18 to 24 hours, anti-TF antibody added 30 minutes prior to clotting, OD405
Method: Peripheral venous blood was obtained by consent from normal, healthy volunteers and mononuclear cells were isolated using Histopaque 1077 (Sigma) density gradient centrifugation. Following three washes with RPMI (Invitrogen) supplemented with 1% fetal calf serum (FCS), cells were counted and viability was assessed using a Guava PCA-96 instrument (Guava Technologies, Hayward, CA). Cells were resuspended to 1.67 x 10^6 cells/mL in RPMI media containing 10% FCS, and 4 mL/well were added to a 6-well dish (Corning-Costar). Lipopolysaccharide (LPS) was diluted into cell cultures to a final concentration of 10 ng/ml. p38 inhibitor compound 1 was added to cell cultures at a final concentration of 10 µM. An equivalent dilution of DMSO was added to untreated cultures. The following four assay conditions were: (+) LPS (+) p38 inhibitor, (+) LPS (-) p38 inhibitor, (-) LPS (+) p38 inhibitor, and (-) LPS (-) p38 inhibitor. […]
Plasma Clotting Assay. […] Clotting was monitored at 15 second intervals for 2 hours at room temperature using a Spectra MAX 190 (Molecular Devices, Sunnyvale, CA) at a wavelength of 405 nm. […]
PBMCs ([…] in 100 µl of HBSS) were pre-incubated with 25 µl of anti-TF antibody compound 3 (10 µg/ml) for 30 minutes at room temperature in the same 96-well plate as the untreated cells above. […] CaCl2 and pooled human plasma were added and the clotting reaction was monitored as described above.

OCCC#Cc1nc(-c2ccc(F)cc2)c(-c2ccncc2)n1CCCc1ccccc1 [compound 1, 4-[4-(4-fluorophenyl)-1-(3-phenylpropyl)-5-(4-pyridinyl)-1H-imidazol-2-yl]-3-butyn-1-ol]
times to reach ½ maximal OD (J82 cells): 160.9 s | time to half the maximum OD [1]: 1882.2 s | Times to half maximum OD (isolated mouse islets): 974.7 s | time to half the maximum OD ([2]; (+) LPS 10 ng/ml, (+) LPS cells without inhibitor 928.6): 1837.3 s | time to half the maximum OD ([2]; (-) LPS, untreated cells 2946.4): 3289.0 s

From patent EP1676574A2, “Methods for promoting survival of transplanted tissues and cells” (Johnson & Johnson Vision Care, Inc., priority 2004, dated 2006)
